Results reported in US20110077279A1, “ANGIOTENSIN II RECEPTOR ANTAGONISTS” (priority 2008, published 2011).

How the values were obtained:
[1] = tested on: isolated rabbit thoracic aorta preparations; experiment: Assay on vascular tone: vasorelaxation of noradrenaline-precontracted aortic rings; assay type: cell-based; conditions: Oryctolagus cuniculus; rabbit aortic rings precontracted with noradrenaline 1 μM, functional endothelium; read-out: EC50 in vessel relaxation assay
Procedure: The ability of the compounds of the invention to induce vasorelaxation in comparison to native angiotensin II receptor blockers (ARBs), was tested in vitro in isolated rabbit thoracic aorta preparations (Wanstall J. C. et al., Br. J. Pharmacol., 134:463-472, 2001). Male New Zealand rabbits were anaesthetized with thiopental-Na (50 mg/kg, iv), sacrificed by exsanguinations and then the thorax was opened and the aorta dissected. Aortic ring preparations (4 mm in length) were set up in physiological salt solution (PSS) at 37° C. in small organ chambers (5 ml). The composition of PSS was (mM): NaCl 130, NaHCO3 14.9, KH2PO4 1.2, MgSO4 1.2, HEPES 10, […] (95% O2/5% CO2; pH 7.4). Each ring was mounted under 2 g passive tension. Isometric tension was recorded with a Grass transducer (Grass FT03) attached to a BIOPAC MP150 System. Preparations were allowed to equilibrate for 1 h, and then contracted submaximally with noradrenaline (NA, 1 μM) and, when the contraction was stable, acetylcholine (ACh, 10 μM) was added. A relaxant response to ACh indicated the presence of a functional endothelium. […] When a stable precontraction was reached, a cumulative concentration-response curve to either of the vasorelaxant agents was obtained in the presence of a functional endothelium. Each arterial ring was exposed to only one combination of inhibitor and vasorelaxant. Moreover, the effect of the soluble guanylyl cyclase inhibitor ODQ (1-H-(1,2,4)-oxadiazol(4,3-a)quinoxalin-1-one) on vasorelaxation elicited by the compounds was examined preincubating the aortic rings with ODQ (10 μM) for 20 min.
Responses to relaxing agents are expressed as a percentage of residual contraction and plotted against concentration of test compound. EC50 values (where EC50 is the concentration producing 50% of the maximum relaxation to the test compound) were interpolated from these plots.
During the experimental period, the plateau obtained with NA was stable without significant spontaneous loss of contraction in the aortic rings. […]

[2] = tested on: conscious spontaneously hypertensive rats (SHRs); experiment: Assay for antihypertensive activity (in vivo), telemetry; parameters: species or system rat
Procedure: The ability of the compounds of the invention to decrease blood pressure was evaluated in conscious spontaneously hypertensive rats (SHRs). SHRs (250-300 g) received a single oral dose of tested compounds. Systolic blood pressure (SBP) and heart rate were monitored by telemetry for 24 hrs after dosing. SBP was evaluated before (baseline) and at different time points (i.e. 2-6, 12, 21-24 hrs) following treatment by oral administration of the compounds. The data were processed both as the absolute value or as a delta between the absolute value and its own baseline.
The Dataquest IV telemetry system (Data Sciences International) was used for measurement of systolic pressure, diastolic pressure, mean arterial pressure, heart rate, and motor activity. The monitoring system consists of a transmitter (radio frequency transducer model TA11PA), receiver panel, consolidation matrix, and personal computer with accompanying software. Before the device was implanted, calibrations were verified to be accurate within ±3 mmHg. Rats were anesthetized with ketamine/xylazine/acepromazine, and the flexible catheter of the transmitter was surgically secured in the abdominal aorta just below the renal arteries. The transmitter was sutured subcutaneously. Rats were housed in individual cages after the operation. Each cage was placed over the receiver panel that was connected to the personal computer for data acquisition. The rats were unrestrained and free to move within their cages. Hemodynamic data were sampled every 2 minutes for 10 seconds.
Compared to Compound A (reference compound), the compounds of the invention provided BP lowering with extended peak effect and duration of action (see Data Table 2).

[3] = 2-6 h after single oral dose, 10 mpk
[4] = 21-24 h after single oral dose, 10 mpk
[5] = 12 h after single oral dose, 10 mpk

| SMILES | EC50 [1] | Δ SBP in SHR [2, 3] | Δ SBP in SHR [2, 4] | Δ SBP in SHR [2, 5] | Δ SBP in SHR ([2]; 2-6 h after single oral dose, 3 mpk) | Δ SBP in SHR ([2]; 21-24 h after single oral dose, 3 mpk) | Δ SBP in SHR ([2]; 12 h after single oral dose, 3 mpk) |
| --- | --- | --- | --- | --- | --- | --- | --- |
| CCOc1nc2cccc(C(=O)OC(C)(C)OC(=O)O[C@@H]3CO[C@H]4[C@@H]3OC[C@H]4OC(=O)OCCC(C)(C)CC(CO[N+](=O)[O-])O[N+](=O)[O-])c2n1Cc1ccc(-c2ccccc2-c2nn[nH]n2)cc1 (stereo partly drawn) [Example 3, 2-(((3R,3aR,6R,6aR)-6-((3,3-dimethyl-5,6-bis(nitrooxy)hexyloxy)carbonyloxy)hexahydrofuro[3,2-b]furan-3-yloxy)carbonyloxy)propan-2-yl 1-((2′-(2H-tetrazol-5-yl)biphenyl-4-yl)methyl)-2-ethoxy-1H-benzo[d]imidazole-7-carboxylate] | 180 nM |  |  |  |  |  |  |
| CCCCc1nc(Cl)c(C(=O)OC(C)OC(=O)O[C@@H]2CO[C@H]3[C@@H]2OC[C@H]3OC(=O)CCCC(CO[N+](=O)[O-])O[N+](=O)[O-])n1Cc1ccc(-c2ccccc2-c2nnn[nH]2)cc1 (stereo partly drawn) [Example 1, 1-(((3R,3aR,6R,6aR)-6-(5,6-bis(nitrooxy)hexanoyloxy)hexahydrofuro[3,2-b]furan-3-yloxy)carbonyloxy)ethyl 1-((2′-(1H-tetrazol-5-yl)biphenyl-4-yl)methyl)-2-butyl-4-chloro-1H-imidazole-5-carboxylate] | 6200 nM | −19 mmHg | −11 mmHg | −14 mmHg |  |  |  |
| CCOc1nc2cccc(C(=O)OC(C)(C)OC(=O)O[C@@H]3CO[C@H]4[C@@H]3OC[C@H]4OC(=O)CCCC(CO[N+](=O)[O-])O[N+](=O)[O-])c2n1Cc1ccc(-c2ccccc2-c2nnn[nH]2)cc1 (stereo partly drawn) [Example 2, 2-(((3R,3aR,6R,6aR)-6-(5,6-bis(nitrooxy)hexanoyloxy)hexahydrofuro[3,2-b]furan-3-yloxy)carbonyloxy)propan-2-yl 1-((2′-(1H-tetrazol-5-yl)biphenyl-4-yl)methyl)-2-ethoxy-1H-benzo[d]imidazole-7-carboxylate] | 270 nM |  |  |  | −37 mmHg | −33 mmHg | −34 mmHg |
| CCCCc1nc(Cl)c(C(=O)OCCOCCO[N+](=O)[O-])n1Cc1ccc(-c2ccccc2-c2nn[nH]n2)cc1 [A, reference compound] |  | −15 mmHg | −8 mmHg | −12 mmHg |  |  |  |
